Source: the supplement of paper PMC10627819

Assays:
[1] = system: B. subtilis 168; experiment: fitness (endpoint OD595 vs no drug) (fraction); higher = more growth
How it was run: (§1)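 Bacterial growth was followed in 384-well plates seeded at OD595 0.01, with 30 µl per well, or 55 µl for S. pneumoniae, in TSB, LB Lennox or CY at 37 °C. OD595 was read every 30 min for 14 h, and each reading had the first reading subtracted as background. Fitness is the background-corrected optical density at entry into stationary phase divided by the robust mean of the no-drug control wells. This ratio is capped at 1.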

[2] = system: S. pneumoniae D39V; experiment: as above
How it was run: as §1

[3] = system: S. aureus DSM 20231; experiment: as above
How it was run: as §1

[4] = system: B. subtilis 168; experiment: Bliss interaction score (quartile over a dose matrix) (fitness difference); higher = more antagonism (negative = synergy)
How it was run: (§2)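 Each plate was normalised to the robust mean of its own no-drug wells, using OD595 at entry into stationary phase, with values capped at 1. This normalised growth is the fitness value. The Bliss score is the difference between observed and product-expected fitness, with single-drug fitness inferred from the combination data and quartiles taken over technical, biological and donor/recipient replicates.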

[5] = system: S. pneumoniae D39V; experiment: as above
How it was run: as §2

[6] = system: S. aureus DSM 20231; experiment: as above
How it was run: as §2

[7] = system: S. aureus Newman; experiment: as above
How it was run: as §2
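Wherever Bliss interaction score (quartile over a dose matrix) is given: first quartile when negative (synergy) and third quartile when positive (antagonism).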

CCC[C@@H]1C[C@@H](C(=O)N[C@@H]([C@H]2O[C@H](SC)[C@H](O)[C@@H](O)[C@H]2O)[C@H](C)Cl)N(C)C1 [Clindamycin] + CC(=O)NC[C@H]1CN(c2ccc(N3CCOCC3)c(F)c2)C(=O)O1 [Linezolid]
one replicate
Settings	fitness
[1], first compound 0.0039 µg/mL, partner 0.125 µg/mL	0.943
[1], first compound 0.0039 µg/mL, partner 0.25 µg/mL	0.772
[1], first compound 0.0039 µg/mL, partner 0.5 µg/mL	0.448
[1], first compound 0.0078 µg/mL, partner 0.125 µg/mL	0.853
[1], first compound 0.0078 µg/mL, partner 0.25 µg/mL	0.632
[1], first compound 0.0078 µg/mL, partner 0.5 µg/mL	0.118
[1], first compound 0.0156 µg/mL, partner 0.125 µg/mL	0.835
[1], first compound 0.0156 µg/mL, partner 0.25 µg/mL	0.624
[1], first compound 0.0156 µg/mL, partner 0.5 µg/mL	0.385
[1], first compound 0.0625 µg/mL, partner 0.0625 µg/mL	0.696
[1], first compound 0.125 µg/mL, partner 0.0625 µg/mL	0.497
[1], first compound 0.25 µg/mL, partner 0.0625 µg/mL	0.387
[3], first compound 0.0312 µg/mL, partner 1 µg/mL	0.0507
[3], first compound 0.0625 µg/mL, partner 1 µg/mL	0.0324
[3], first compound 0.125 µg/mL, partner 1 µg/mL	0.0362

Settings	fitness
[1], first compound 0.0625 µg/mL, partner 0.125 µg/mL	0.605
[1], first compound 0.0625 µg/mL, partner 0.25 µg/mL	0.0905
[1], first compound 0.0625 µg/mL, partner 0.5 µg/mL	0.0427
[1], first compound 0.125 µg/mL, partner 0.125 µg/mL	0.502
[1], first compound 0.125 µg/mL, partner 0.25 µg/mL	0.0971
[1], first compound 0.125 µg/mL, partner 0.5 µg/mL	0.0448
[1], first compound 0.25 µg/mL, partner 0.125 µg/mL	0.397
[1], first compound 0.25 µg/mL, partner 0.25 µg/mL	0.104
[1], first compound 0.25 µg/mL, partner 0.5 µg/mL	0.0468
[2], first compound 0.0125 µg/mL, partner 0.2 µg/mL	0.624
[2], first compound 0.0125 µg/mL, partner 0.4 µg/mL	0.45
[2], first compound 0.0125 µg/mL, partner 0.8 µg/mL	0.264
[2], first compound 0.015 µg/mL, partner 0.105 µg/mL	0.81
[2], first compound 0.015 µg/mL, partner 0.21 µg/mL	0.748
[2], first compound 0.015 µg/mL, partner 0.42 µg/mL	0.627
[2], first compound 0.025 µg/mL, partner 0.2 µg/mL	0.412
[2], first compound 0.025 µg/mL, partner 0.4 µg/mL	0.345
[2], first compound 0.025 µg/mL, partner 0.8 µg/mL	0.237
[2], first compound 0.03 µg/mL, partner 0.105 µg/mL	0.707
[2], first compound 0.03 µg/mL, partner 0.21 µg/mL	0.683
[2], first compound 0.03 µg/mL, partner 0.42 µg/mL	0.539
[2], first compound 0.05 µg/mL, partner 0.2 µg/mL	0.176
[2], first compound 0.05 µg/mL, partner 0.4 µg/mL	0.148
[2], first compound 0.05 µg/mL, partner 0.8 µg/mL	0.112
[2], first compound 0.06 µg/mL, partner 0.105 µg/mL	0.579
[2], first compound 0.06 µg/mL, partner 0.21 µg/mL	0.544
[2], first compound 0.06 µg/mL, partner 0.42 µg/mL	0.277
[3], first compound 0.0312 µg/mL, partner 0.5 µg/mL	0.143
[3], first compound 0.0625 µg/mL, partner 0.25 µg/mL	0.13
[3], first compound 0.0625 µg/mL, partner 0.5 µg/mL	0.0789
[3], first compound 0.125 µg/mL, partner 0.125 µg/mL	0.0394
[3], first compound 0.125 µg/mL, partner 0.25 µg/mL	0.0405
[3], first compound 0.125 µg/mL, partner 0.5 µg/mL	0.0486

Settings	Bliss interaction score
[4]	0.215
[5]	0.132
[6]	0.027
[7]	-0.0929

CCC[C@@H]1C[C@@H](C(=O)N[C@@H]([C@H]2O[C@H](SC)[C@H](O)[C@@H](O)[C@H]2O)[C@H](C)Cl)N(C)C1 [Clindamycin] + CCC[C@@H]1C[C@@H](C(=O)N[C@@H]([C@H]2O[C@H](SC)[C@H](O)[C@@H](O)[C@H]2O)[C@@H](C)O)N(C)C1 [Lincomycin]
fitness, [1], one replicate
Settings	first compound 0.0039 µg/mL	first compound 0.0078 µg/mL	first compound 0.0156 µg/mL
partner 0.4 µg/mL	0.964	0.838	0.828
partner 0.8 µg/mL	0.965	0.803	0.83
partner 1.6 µg/mL	0.94	0.817	0.81

Settings	fitness
[1], first compound 0.0625 µg/mL, partner 0.1 µg/mL	0.659
[1], first compound 0.0625 µg/mL, partner 0.2 µg/mL	0.613
[1], first compound 0.0625 µg/mL, partner 0.4 µg/mL	0.675
[1], first compound 0.125 µg/mL, partner 0.1 µg/mL	0.454
[1], first compound 0.125 µg/mL, partner 0.2 µg/mL	0.406
[1], first compound 0.25 µg/mL, partner 0.1 µg/mL	0.363
[1], first compound 0.25 µg/mL, partner 0.2 µg/mL	0.355
[1], first compound 0.25 µg/mL, partner 0.4 µg/mL	0.356
[2], first compound 0.0125 µg/mL, partner 0.2 µg/mL	0.496
[2], first compound 0.0125 µg/mL, partner 0.4 µg/mL	0.351
[2], first compound 0.0125 µg/mL, partner 0.8 µg/mL	0.0708
[2], first compound 0.015 µg/mL, partner 0.215 µg/mL	0.831
[2], first compound 0.015 µg/mL, partner 0.43 µg/mL	0.741
[2], first compound 0.015 µg/mL, partner 0.86 µg/mL	0.482
[2], first compound 0.025 µg/mL, partner 0.2 µg/mL	0.356
[2], first compound 0.025 µg/mL, partner 0.4 µg/mL	0.243
[2], first compound 0.025 µg/mL, partner 0.8 µg/mL	0.0559
[2], first compound 0.03 µg/mL, partner 0.215 µg/mL	0.772
[2], first compound 0.03 µg/mL, partner 0.43 µg/mL	0.739
[2], first compound 0.03 µg/mL, partner 0.86 µg/mL	0.394
[2], first compound 0.05 µg/mL, partner 0.2 µg/mL	0.0687
[2], first compound 0.05 µg/mL, partner 0.4 µg/mL	0.0516
[2], first compound 0.05 µg/mL, partner 0.8 µg/mL	0.0164
[2], first compound 0.06 µg/mL, partner 0.215 µg/mL	0.632
[2], first compound 0.06 µg/mL, partner 0.43 µg/mL	0.524
[2], first compound 0.06 µg/mL, partner 0.86 µg/mL	0.152
[3], first compound 0.0312 µg/mL, partner 0.2 µg/mL	0.265
[3], first compound 0.0312 µg/mL, partner 0.4 µg/mL	0.137
[3], first compound 0.0625 µg/mL, partner 0.1 µg/mL	0.16
[3], first compound 0.0625 µg/mL, partner 0.2 µg/mL	0.112
[3], first compound 0.0625 µg/mL, partner 0.4 µg/mL	0.083
[3], first compound 0.125 µg/mL, partner 0.1 µg/mL	0.0376
[3], first compound 0.125 µg/mL, partner 0.2 µg/mL	0.0455
[3], first compound 0.125 µg/mL, partner 0.4 µg/mL	0.0541

Settings	Bliss interaction score
[4]	0.193
[5]	0.0748
[6]	-0.0523
[7]	-0.22

CCC[C@@H]1C[C@@H](C(=O)N[C@@H]([C@H]2O[C@H](SC)[C@H](O)[C@@H](O)[C@H]2O)[C@H](C)Cl)N(C)C1 [Clindamycin] + COc1cc(Cc2cnc(N)nc2N)cc(OC)c1OC [Trimethoprim]
fitness, [1], one replicate
Settings	partner 0.1 µg/mL	partner 0.125 µg/mL	partner 0.2 µg/mL	partner 0.25 µg/mL	partner 0.4 µg/mL	partner 0.5 µg/mL	partner 1 µg/mL	partner 2 µg/mL
first compound 0.0039 µg/mL	–	0.663	–	0.563	–	0.518	–	–
first compound 0.0078 µg/mL	–	0.603	–	0.511	–	0.481	–	–
first compound 0.0156 µg/mL	–	0.596	–	0.54	–	0.531	–	–
first compound 0.0625 µg/mL	0.461	0.38	0.271	–	0.174	–	0.041	0.0649
first compound 0.125 µg/mL	0.256	0.179	0.172	–	0.0828	–	0.031	0.0548
first compound 0.25 µg/mL	0.126	0.0411	0.0757	–	0.0475	–	0.0278	0.0626

fitness
Settings	first compound 0.0312 µg/mL	first compound 0.0625 µg/mL	first compound 0.125 µg/mL	first compound 0.25 µg/mL
[1], partner 0.25 µg/mL	–	0.352	0.233	0.083
[1], partner 0.5 µg/mL	–	0.222	0.101	0.0589
[3], partner 0.125 µg/mL	0.268	0.0676	0.0245	–
[3], partner 0.25 µg/mL	–	0.125	0.0812	–
[3], partner 0.5 µg/mL	–	0.0734	0.0599	–
[3], partner 1 µg/mL	0.124	0.0694	0.0452	–

Settings	Bliss interaction score
[4]	-0.144
[5]	0.0411
[6]	0.0511
[7]	0.196

O=C(O[C@@H]1Cc2c(O)cc(O)cc2O[C@@H]1c1cc(O)c(O)c(O)c1)c1cc(O)c(O)c(O)c1 [EGCG] + CC(=O)NC[C@H]1CN(c2ccc(N3CCOCC3)c(F)c2)C(=O)O1 [Linezolid]
fitness, one replicate
Settings	first compound 6.25 µg/mL	first compound 12.5 µg/mL	first compound 25 µg/mL	first compound 50 µg/mL
[1], partner 0.0625 µg/mL	0.854	0.61	0.286	–
[3], partner 1 µg/mL	–	0.0545	0.076	0.0554

fitness
Settings	first compound 6.25 µg/mL	first compound 12.5 µg/mL	first compound 25 µg/mL	first compound 50 µg/mL
[1], partner 0.125 µg/mL	0.582	0.482	–	–
[1], partner 0.25 µg/mL	–	–	0.0697	–
[1], partner 0.5 µg/mL	0.0716	0.0599	0.0583	–
[2], partner 0.105 µg/mL	–	0.735	0.634	0.752
[2], partner 0.2 µg/mL	–	0.533	0.517	0.411
[2], partner 0.21 µg/mL	–	0.604	0.688	0.64
[2], partner 0.4 µg/mL	–	0.283	0.249	0.218
[2], partner 0.42 µg/mL	–	0.505	–	0.498
[2], partner 0.8 µg/mL	–	0.12	0.0783	0.133
[3], partner 0.125 µg/mL	–	0.745	0.816	0.708
[3], partner 0.25 µg/mL	–	0.551	0.559	0.563
[3], partner 0.5 µg/mL	–	0.223	0.25	0.159

Settings	Bliss interaction score
[4]	0.0875
[5]	-0.1
[6]	0.0748
[7]	0.0955
